Results taken from patent publication US11957687B2 (REGENERON PHARMACEUTICALS, INC., priority 2019, dated 2024).
Like-named read-outs stand apart in the source and are kept apart here.

Columns and labels:
HSD17B13 = HSD17B13 (Homo sapiens (Human), UniProt Q7Z5P4); assay: HSD17B13 enzymatic inhibition assay (150 nM or 50 nM HSD17B13); format: biochemical
[1] = Microsome stability assay, human liver microsomes; format: in vitro ADME; settings: 1 μM compound, 0.5 mg/mL microsomal protein; for microsomal CLint at 1 h, 1 µM: read-out: Microsome Stability Human liver microsomes Cl
Protocol: (§1) Compounds of the disclosure were screened in microsome stability assays. For the screen, test compounds were incubated at 37° C. with either human liver microsomes (Corning; #452117) or mouse liver microsomes (XenoTech; #M1000), pooled from multiple donors, at 1 μM in the presence of a NADPH regenerating system at 0.5 mg/mL microsomal protein. Positive controls included in the assay were testosterone (3A4 substrate), propafenone (2D6) and diclofenac (2C9). Samples were removed at different time points (0, 5, 10, 20, 30 and 60 minutes) and immediately mixed with cold acetonitrile containing internal standard (IS, 200 ng/mL tolbutamide and 200 ng/mL labetalol). Test compounds incubated with microsomes for 60 minutes without the NADPH regenerating system was also included. A single point for each test condition (n=1) was obtained, and samples were analyzed by LC/MS/MS. Disappearance of the test compound was assessed based on peak area ratios of analyte/IS (no standard curve).

[2] = Microsome stability assay, mouse liver microsomes; format: in vitro ADME; settings: 1 μM compound, 0.5 mg/mL microsomal protein
Protocol: as §1

[3] = 50 nM HSD17B13, read-out: Inhibition of 50 nM of HSD17B13 IC50
[4] = human, human liver microsomes, pooled, NADPH, 37° C.
[5] = human, human liver microsomes, pooled, NADPH, 37° C., read-out: Microsome Stability Human liver microsomes T½
[6] = mouse, mouse liver microsomes, pooled, NADPH, 37° C., read-out: Microsome Stability Mouse liver microsomes Cl
[7] = mouse, mouse liver microsomes, pooled, NADPH, 37° C., read-out: Microsome Stability Mouse liver microsomes T½

Chain of HSD17B13 (Q7Z5P4 other isoform, or with tags, fused parts or gaps): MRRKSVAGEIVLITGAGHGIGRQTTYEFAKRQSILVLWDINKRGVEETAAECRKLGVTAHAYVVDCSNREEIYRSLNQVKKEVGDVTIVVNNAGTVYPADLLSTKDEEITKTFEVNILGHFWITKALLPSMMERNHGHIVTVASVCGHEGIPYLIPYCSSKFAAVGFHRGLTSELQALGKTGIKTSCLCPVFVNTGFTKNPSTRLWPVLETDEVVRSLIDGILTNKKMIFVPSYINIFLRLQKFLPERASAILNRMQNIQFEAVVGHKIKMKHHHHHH

SMILES	IC50 (HSD17B13; [3]) [nM]	Microsome Stability Human liver microsomes % Remaining @60 min [1] [%]	microsomal CLint at 1 h, 1 µM [1, 4] [µL/min/mg]	half-life at 1 h, 1 µM [1, 5] [min]	Microsome Stability Mouse liver microsomes % Remaining @60 min [2] [%]	microsomal CLint at 1 h, 1 µM [2, 6] [µL/min/mg]	half-life at 1 h, 1 µM [2, 7] [min]	IC50 (HSD17B13; 150 nM HSD17B13, read-out: Inhibition of 150 nM of HSD17B13 IC50) [nM]	half-life at 1 μM [1, 5] [min]	microsomal CLint at 1 μM [2, 6] [µL/min/mg]	half-life at 1 μM [2, 7] [min]
O=C(NC(c1ccccc1)c1ccccc1)c1ccc(C(F)(F)F)[nH]c1=O [Compound 1, N-benzhydryl-2-oxo-6-(trifluoromethyl)-1,2-dihydropyridine-3-carboxamide]	1750	66.90	13.4	103	29.00	42.4	32.7				
CCCc1ccc(C(NC(=O)c2ccc(C(F)(F)F)[nH]c2=O)c2ccccc2)cc1 (stereo not drawn) [Compound 36, 2-oxo-N-(phenyl(4-propylphenyl)methyl)-6-(trifluoromethyl)-1,2-dihydropyridine-3-carboxamide]	680	2.00	126	11							
CC(C)c1ccc(C(NC(=O)c2ccc(C(F)(F)F)[nH]c2=O)c2ccccc2)cc1 (stereo not drawn) [Compound 37, N-((4-isopropylphenyl)(phenyl)methyl)-2-oxo-6-(trifluoromethyl)-1,2-dihydropyridine-3-carboxamide]	780	5.70	92.4	15							
Cc1ccc(C(=O)NC(c2ccccc2)c2ccccc2O)c(=O)[nH]1 (stereo not drawn) [Compound 65, N-((2-hydroxyphenyl)(phenyl)methyl)-6-methyl-2-oxo-1,2-dihydropyridine-3-carboxamide]		50.10	118					> 30000	11.8		
COc1ccc2c(c1)CCC2NC(=O)c1ccc(C(F)(F)F)[nH]c1=O (stereo not drawn) [Compound 134, N-(5-methoxy-2,3-dihydro-1H-inden-1-yl)-2-oxo-6-(trifluoromethyl)-1,2-dihydropyridine-3-carboxamide]	1410	0.27	410	3.38							
Cc1ccc(CNC(=O)c2ccc(C(F)(F)F)[nH]c2=O)cc1 [Compound 215, N-(4-methylbenzyl)-2-oxo-6-(trifluoromethyl)-1,2-dihydropyridine-3-carboxamide]	2200	1.00	414	3.35							
COc1ccc2c(c1)CCCC2NC(=O)c1ccc(C(F)(F)F)[nH]c1=O (stereo not drawn) [Compound 234, N-(6-methoxy-1,2,3,4-tetrahydronaphthalen-1-yl)-2-oxo-6-(trifluoromethyl)-1,2-dihydropyridine-3-carboxamide]	410	1	369	3.76	1	303	4.56				
Cc1ccc2c(c1)CCCC2NC(=O)c1ccc(C(F)(F)F)[nH]c1=O (stereo not drawn) [Compound 235, N-(6-methyl-1,2,3,4-tetrahydronaphthalen-1-yl)-2-oxo-6-(trifluoromethyl)-1,2-dihydropyridine-3-carboxamide]	200	1	547	2.53	50	23.6	58.7				
COc1ccc2c(c1)Oc1cc(OC)ccc1C2NC(=O)c1ccc(C(F)F)[nH]c1=O [Compound 273, 6-(difluoromethyl)-N-(3,6-dimethoxy-9H-xanthen-9-yl)-2-oxo-1,2-dihydropyridine-3-carboxamide]	340	66.40	13.2	105	39	31	44.7				
CCC1CCc2cc(O)ccc2C1NC(=O)c1ccc(C(F)(F)F)[nH]c1=O (stereo not drawn) [Compound 284, N-(2-ethyl-6-hydroxy-1,2,3,4-tetrahydronaphthalen-1-yl)-2-oxo-6-(trifluoromethyl)-1,2-dihydropyridine-3-carboxamide]	340	70.70	9.82	141	76.40					< 9.6	> 145
CCCC1CCc2cc(C)ccc2C1NC(=O)c1ccc(C(F)(F)F)[nH]c1=O (stereo not drawn) [Compound 285, N-(6-methyl-2-propyl-1,2,3,4-tetrahydronaphthalen-1-yl)-2-oxo-6-(trifluoromethyl)-1,2-dihydropyridine-3-carboxamide]	30	1.49	137	10.1	11.20	70.7	19.6				
CCCC1CCc2cc(Cl)ccc2C1NC(=O)c1ccc(C(F)(F)F)[nH]c1=O (stereo not drawn) [Compound 286, N-(6-chloro-2-propyl-1,2,3,4-tetrahydronaphthalen-l-yl)-2-oxo-6-(trifluoromethyl)-1,2-dihydropyridine-3-carboxamide]	190	27.10	42.9	32.3	38.20	29.6	46.9				
CCCC1Cc2ccc(C)cc2C1NC(=O)c1ccc(C(F)(F)F)[nH]c1=O (stereo not drawn) [Compound 291, N-(6-methyl-2-propyl-2,3-dihydro-1H-inden-1-yl)-2-oxo-6-(trifluoromethyl)-1,2-dihydropyridine-3-carboxamide]		17.90	54.5	25.5	52.20	21.3	65				
CC1CCc2cc(Cl)ccc2C1NC(=O)c1ccc(C(F)(F)F)[nH]c1=O (stereo not drawn) [Compound 293, N-(6-chloro-2-methyl-1,2,3,4-tetrahydronaphthalen-1-yl)-2-oxo-6-(trifluoromethyl)-1,2-dihydropyridine-3-carboxamide]	130	0.14	231	6	33.80	37.9	36.5				
Cc1ccc2c(c1)CCC(C)C2NC(=O)c1ccc(C(F)(F)F)[nH]c1=O (stereo not drawn) [Compound 294, N-(2,6-dimethyl-1,2,3,4-tetrahydronaphthalen-1-yl)-2-oxo-6-(trifluoromethyl)-1,2-dihydropyridine-3-carboxamide]	90	0.10	643	2.15	33.80	33.4	41.5				
CCC1Cc2cc(OC)ccc2C1NC(=O)c1ccc(C(F)(F)F)[nH]c1=O (stereo not drawn) [Compound 295, N-(2-ethyl-5-methoxy-2,3-dihydro-1H-inden-1-yl)-2-oxo-6-(trifluoromethyl)-1,2-dihydropyridine-3-carboxamide]	100	1	221	6.26	69	12.7	110				
